Consider nine compounds from patent US12630530B2, “FGFR inhibitor compound and use thereof” (HENAN MEDINNO PHARMACEUTICAL TECHNOLOGY CO., LTD., priority 2020, dated 2026).

Format in all cases: biochemical
What all share (conditions): Table 3; same method as Assay I, different experimental operator

One test concerns the target T1, FGFR1 V561M (Homo sapiens, UniProt P11362, V561M).
T1 construct: purchased Signalchem F04-13G
The test is described as follows: Assay III: inhibitory activity against FGFR mutants (method of Assay I, different operator). The method, then:
(§1) 1×Kinase reaction buffer was formulated with 1×volume of 5× kinase reaction buffer and 4×volume of water; 5 mM MgCl2; and 1 mM DTT.
(§2) 2.3 Screening of Compounds: • 1. Diluting a compound 4-fold in a dilution plate with DMSO, with a starting compound concentration of 2 mM (4 mM for Nentedanib). • 2. Diluting the compound 40-fold into 1× kinase reaction buffer and shaking it on a shaker for 20 minutes. • 3. […] Adding 1 μl of the compound diluted in buffer to each well, sealing the plate with a sealing membrane and centrifuging the plate at 1000 g for 30 seconds and leaving it at room temperature for 10 minutes. • 6. Formulating 2.5×TK-substrate-biotin and ATP mixture with 1× enzyme reaction buffer and adding 2 μl of K-substrate-biotin/ATP mixture to the reaction plate. • 7. Sealing the plate with a sealing membrane and centrifuging the plate at 1000 g for 30 seconds and allowing it to react at room temperature for 50 minutes. • 8. Formulating 4×Sa-XL 665 (250 nM) with HTRF assay buffer. • 9. Adding 5 μl Sa-XL 665 and 5 μl TK-Antibody-Cryptate to each well, centrifuging it at 1000 g for 30 seconds, and allowing it to react for 1 hour at room temperature. • 10. Reading fluorescence signals at 615 nm (Cryptate) and 665 nm (XL665) with Biotek. 3. Data Analysis
(§3) 3.1 Calculation of the ratio for each well: the ratio was calculated as 665/615 nm.
(§4) 3.3 Calculation of IC50 and plotting of inhibition curves for the compounds.
(§5) The IC50 (half inhibition concentration) of a compound was obtained using the following non-linear fitting equation, wherein data analysis was performed using Graphpad 6.0 software.
(§6) Data were exported from Envision and analyzed manually. The ratios were converted to inhibition rates and IC50 was calculated by Prism GraphPad 6.0 from the inhibition rates. IC50 was calculated again by the ratios to verify accuracy of the results.
(§7) Assay III: Determination of Inhibitory Activity Against FGFR Mutants

Another test has as its target T2, FGFR3 V555M (Homo sapiens, UniProt P22607, V555M).
T2 construct: purchased Signalchem F06-12GG
The test is described as above. The method, then: as §1, §2, §3, §4, §5, §6, §7

In another test the target is T3, FGFR2 V564F (Homo sapiens, UniProt P21802, V564F).
T3 construct: purchased Signalchem F05-12FG
The description is as above. The method, then:
as §1, §2, §3, §4, §5, §6, §7

The next test concerns the target T4, VEGFR2 (Homo sapiens, UniProt P35968).
T4 construct: purchased Carna 08-191
Briefly: Assay III: kinase inhibition (method of Assay I, different operator), VEGFR2. The method, then:
as §1
2.3 Screening of Compounds: • 1. Diluting a compound 4-fold in a dilution plate with DMSO, with a starting compound concentration of 2 mM (4 mM for Nentedanib). • 2. Diluting the compound 40-fold into 1× kinase reaction buffer and shaking it on a shaker for 20 minutes. • 3. Formulating 2×FGFR1 V561M/FGFR2 V564F/FGFR3 K650E/VEGFR2 with 1× of enzyme reaction buffer. • 4. Adding 2 μl FGFR1 V561M/FGFR2 V564F/FGFR3 K650E/VEGFR2 kinase (formulated in step 3) to each well of the reaction plate. • 5. Adding 1 μl of the compound diluted in buffer to each well, sealing the plate with a sealing membrane and centrifuging the plate at 1000 g for 30 seconds and leaving it at room temperature for 10 minutes. • 6. Formulating 2.5×TK-substrate-biotin and ATP mixture with 1× enzyme reaction buffer and adding 2 μl of K-substrate-biotin/ATP mixture to the reaction plate. • 7. Sealing the plate with a sealing membrane and centrifuging the plate at 1000 g for 30 seconds and allowing it to react at room temperature for 50 minutes. • 8. Formulating 4×Sa-XL 665 (250 nM) with HTRF assay buffer. • 9. Adding 5 μl Sa-XL 665 and 5 μl TK-Antibody-Cryptate to each well, centrifuging it at 1000 g for 30 seconds, and allowing it to react for 1 hour at room temperature. • 10. Reading fluorescence signals at 615 nm (Cryptate) and 665 nm (XL665) with Biotek. 3. Data Analysis
as §3, §4
The IC50 (half inhibition concentration) of a compound was obtained using the following non-linear fitting equation, wherein data analysis was performed using Graphpad 6.0 software. Y=Bottom+(Top−Bottom)/(1+10^((Log IC50−X)*Hill Slope)) • X: log value of compound concentration; and Y: inhibition rate (% inh) 3.4 Validation of Results
as §6, §7

T4 sequence (P35968 20-1356): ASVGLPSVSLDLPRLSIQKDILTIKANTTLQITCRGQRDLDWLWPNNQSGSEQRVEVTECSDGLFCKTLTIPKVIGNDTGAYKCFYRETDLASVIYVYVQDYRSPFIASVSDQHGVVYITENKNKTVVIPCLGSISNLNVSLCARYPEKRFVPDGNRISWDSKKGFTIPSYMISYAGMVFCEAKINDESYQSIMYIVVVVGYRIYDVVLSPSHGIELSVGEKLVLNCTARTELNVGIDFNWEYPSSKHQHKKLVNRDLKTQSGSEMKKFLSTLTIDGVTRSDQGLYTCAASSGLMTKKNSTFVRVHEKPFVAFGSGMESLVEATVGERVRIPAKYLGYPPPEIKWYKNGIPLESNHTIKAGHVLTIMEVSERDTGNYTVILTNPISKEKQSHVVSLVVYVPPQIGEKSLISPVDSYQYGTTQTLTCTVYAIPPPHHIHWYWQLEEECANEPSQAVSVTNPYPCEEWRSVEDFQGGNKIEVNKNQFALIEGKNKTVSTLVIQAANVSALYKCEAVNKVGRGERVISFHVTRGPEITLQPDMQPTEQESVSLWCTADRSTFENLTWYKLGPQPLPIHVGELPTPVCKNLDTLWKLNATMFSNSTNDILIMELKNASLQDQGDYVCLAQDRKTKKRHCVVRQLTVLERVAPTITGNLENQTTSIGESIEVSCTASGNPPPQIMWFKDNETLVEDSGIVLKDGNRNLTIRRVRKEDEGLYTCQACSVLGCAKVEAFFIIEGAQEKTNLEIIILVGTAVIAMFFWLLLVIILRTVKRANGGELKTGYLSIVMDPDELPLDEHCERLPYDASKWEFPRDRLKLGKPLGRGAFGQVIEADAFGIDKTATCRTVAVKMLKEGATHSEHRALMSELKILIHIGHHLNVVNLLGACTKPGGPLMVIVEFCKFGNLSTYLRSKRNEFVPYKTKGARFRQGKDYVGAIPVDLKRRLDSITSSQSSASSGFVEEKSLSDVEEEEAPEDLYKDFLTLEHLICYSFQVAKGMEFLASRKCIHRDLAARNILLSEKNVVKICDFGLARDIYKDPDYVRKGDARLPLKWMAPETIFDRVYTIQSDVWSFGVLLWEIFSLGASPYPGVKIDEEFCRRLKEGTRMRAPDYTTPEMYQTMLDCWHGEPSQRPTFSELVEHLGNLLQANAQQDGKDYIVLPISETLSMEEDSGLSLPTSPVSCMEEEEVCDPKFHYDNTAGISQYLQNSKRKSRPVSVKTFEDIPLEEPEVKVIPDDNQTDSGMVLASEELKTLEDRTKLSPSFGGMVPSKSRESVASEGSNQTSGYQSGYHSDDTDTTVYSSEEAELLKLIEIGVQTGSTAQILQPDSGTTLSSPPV
T2 sequence (P22607 23-806 V555M): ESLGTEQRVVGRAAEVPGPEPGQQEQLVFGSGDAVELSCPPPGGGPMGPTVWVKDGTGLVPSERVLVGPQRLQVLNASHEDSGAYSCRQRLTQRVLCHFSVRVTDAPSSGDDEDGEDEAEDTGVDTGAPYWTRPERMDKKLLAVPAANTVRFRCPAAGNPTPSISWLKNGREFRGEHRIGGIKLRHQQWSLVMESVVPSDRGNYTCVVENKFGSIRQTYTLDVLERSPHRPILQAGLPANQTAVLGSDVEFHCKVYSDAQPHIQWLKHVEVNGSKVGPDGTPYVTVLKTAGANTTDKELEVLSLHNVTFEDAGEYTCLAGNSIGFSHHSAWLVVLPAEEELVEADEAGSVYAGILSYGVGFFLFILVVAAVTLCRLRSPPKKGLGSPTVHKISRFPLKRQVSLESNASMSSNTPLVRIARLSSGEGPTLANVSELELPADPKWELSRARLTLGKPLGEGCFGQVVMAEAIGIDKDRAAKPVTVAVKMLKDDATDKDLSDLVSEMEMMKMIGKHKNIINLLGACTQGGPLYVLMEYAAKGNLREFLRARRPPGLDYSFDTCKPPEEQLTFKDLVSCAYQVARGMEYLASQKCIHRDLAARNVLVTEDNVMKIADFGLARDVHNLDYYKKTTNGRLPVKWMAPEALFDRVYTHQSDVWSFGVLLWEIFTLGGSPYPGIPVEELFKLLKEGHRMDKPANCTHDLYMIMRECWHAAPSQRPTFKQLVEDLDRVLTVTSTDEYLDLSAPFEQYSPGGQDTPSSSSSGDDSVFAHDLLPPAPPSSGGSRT
T3 sequence (P21802 22-821 V564F): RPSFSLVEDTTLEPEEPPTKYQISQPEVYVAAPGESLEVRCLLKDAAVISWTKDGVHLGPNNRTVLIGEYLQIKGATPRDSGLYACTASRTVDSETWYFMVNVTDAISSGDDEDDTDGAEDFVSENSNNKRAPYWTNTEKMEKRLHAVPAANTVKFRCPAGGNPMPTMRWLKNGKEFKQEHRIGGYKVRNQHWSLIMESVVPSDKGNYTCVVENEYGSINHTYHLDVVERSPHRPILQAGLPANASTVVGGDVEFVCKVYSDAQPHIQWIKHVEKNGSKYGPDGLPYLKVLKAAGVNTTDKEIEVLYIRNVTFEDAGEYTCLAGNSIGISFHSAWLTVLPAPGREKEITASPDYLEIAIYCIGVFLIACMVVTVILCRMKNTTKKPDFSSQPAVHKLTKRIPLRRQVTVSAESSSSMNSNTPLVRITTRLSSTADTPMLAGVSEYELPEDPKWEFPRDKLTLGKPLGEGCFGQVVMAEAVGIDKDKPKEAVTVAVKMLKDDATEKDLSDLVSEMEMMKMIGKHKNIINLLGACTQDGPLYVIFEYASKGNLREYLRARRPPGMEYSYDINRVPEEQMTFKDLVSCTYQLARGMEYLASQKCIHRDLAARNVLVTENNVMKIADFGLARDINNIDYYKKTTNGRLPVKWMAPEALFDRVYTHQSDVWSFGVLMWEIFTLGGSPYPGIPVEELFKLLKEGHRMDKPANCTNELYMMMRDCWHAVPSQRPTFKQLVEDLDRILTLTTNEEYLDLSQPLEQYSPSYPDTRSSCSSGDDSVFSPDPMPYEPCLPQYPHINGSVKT
T1 sequence (P11362 22-822 V561M): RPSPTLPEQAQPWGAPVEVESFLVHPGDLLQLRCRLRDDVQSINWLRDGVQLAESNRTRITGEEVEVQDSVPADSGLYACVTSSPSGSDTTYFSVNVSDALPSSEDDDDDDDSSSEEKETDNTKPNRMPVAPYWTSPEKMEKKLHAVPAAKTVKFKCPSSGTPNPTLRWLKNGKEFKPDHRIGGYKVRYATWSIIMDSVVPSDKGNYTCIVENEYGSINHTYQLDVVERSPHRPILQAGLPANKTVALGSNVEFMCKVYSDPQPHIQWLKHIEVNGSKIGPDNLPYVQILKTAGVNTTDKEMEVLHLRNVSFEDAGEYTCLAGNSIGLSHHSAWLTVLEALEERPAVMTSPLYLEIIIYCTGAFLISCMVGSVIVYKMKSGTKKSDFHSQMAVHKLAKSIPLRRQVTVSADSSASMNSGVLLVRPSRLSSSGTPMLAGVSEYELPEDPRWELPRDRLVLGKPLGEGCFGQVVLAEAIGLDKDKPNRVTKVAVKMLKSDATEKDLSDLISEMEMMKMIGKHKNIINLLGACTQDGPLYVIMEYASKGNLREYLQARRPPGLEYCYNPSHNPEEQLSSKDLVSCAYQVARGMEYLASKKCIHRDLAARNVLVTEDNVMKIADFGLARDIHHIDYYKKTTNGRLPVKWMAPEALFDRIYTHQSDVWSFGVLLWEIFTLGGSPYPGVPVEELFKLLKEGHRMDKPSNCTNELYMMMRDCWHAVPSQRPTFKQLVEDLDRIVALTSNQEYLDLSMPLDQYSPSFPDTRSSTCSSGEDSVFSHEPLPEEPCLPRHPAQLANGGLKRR

Broadly, the IC50 is the concentration that inhibits the measured activity by half. The low end stands for higher potency, the high end for lower potency. As to `C[C@@H](Oc1ccc2[nH]nc(C(=O)Nc3cnn(C4CCN(C)C4)c3)c2c1)c1c(Cl)cncc1Cl` (stereo partly drawn) [Compound 43, 5-((R)-1-(3,5-dichloropyridin-4-yl)ethoxy)-N-(1-(1-methylpyrrolidin-3-yl)-1H-pyrazol-4-yl)-1H-indazole-3-carboxamide], the half-inhibitory concentration (IC50) turned out to be 0.38 nM against FGFR1 V561M, 0.14 nM at FGFR3 V555M, 0.15 nM against FGFR2 V564F and 62 nM against VEGFR2.

For `C[C@@H](Oc1ccc2[nH]nc(C(=O)Nc3cnn(Cc4cccnc4)c3)c2c1)c1c(Cl)cncc1Cl` [Compound 49, (R)-5-(1-(3,5-dichloropyridin-4-yl)ethoxy)-N-(1-(pyridin-3-ylmethyl)-1H-pyrazol-4-yl)-1H-indazole-3-carboxamide], the IC50 on FGFR1 V561M was determined as 0.51 nM; at FGFR3 V555M, 1.4 nM; at FGFR2 V564F, 0.55 nM; against VEGFR2, 110 nM.

With `C[C@@H](Oc1ccc2[nH]nc(C(=O)Nc3cnn(CCN(C)C)c3)c2c1)c1c(Cl)cncc1Cl` [Compound 36, (R)-5-(1-(3,5-dichloropyridin-4-yl)ethoxy)-N-(1-(2-(dimethylamino)ethyl)-1H-pyrazol-4-yl)-1H-indazole-3-carboxamide], the half-maximal inhibitory concentration (IC50) came out at 0.88 nM against FGFR1 V561M, 0.11 nM against FGFR3 V555M, 0.07 nM at FGFR2 V564F and 41 nM on VEGFR2.

Consider `C[C@@H](Oc1ccc2[nH]nc(C(=O)Nc3cnn(CC(C)(C)O)c3)c2c1)c1c(Cl)cncc1Cl` [Compound 38, (R)-5-(1-(3,5-dichloropyridin-4-yl)ethoxy)-N-(1-(2-hydroxy-2-methylpropyl)-1H-pyrazol-4-yl)-1H-indazole-3-carboxamide], for which the IC50 against FGFR1 V561M stood at 3.7 nM; against FGFR3 V555M, 0.59 nM; against FGFR2 V564F, 0.4 nM; against VEGFR2, 61 nM.

As for `C[C@@H](Oc1ccc2[nH]nc(C(=O)Nc3cnn(CC4CCN(C)C4)c3)c2c1)c1c(Cl)cncc1Cl` (stereo partly drawn) [Compound 41, 5-((R)-1-(3,5-dichloropyridin-4-yl)ethoxy)-N-(1-((1-methylpyrrolidin-3-yl)methyl)-1H-pyrazol-4-yl)-1H-indazole-3-carboxamide], the half-inhibitory concentration (IC50) is 0.37 nM against FGFR1 V561M, 0.22 nM against FGFR3 V555M, 0.18 nM against FGFR2 V564F and 84 nM on VEGFR2.

For the compound `CC(Oc1ccc2[nH]nc(C(=O)Nc3cnn(CC(F)(F)F)c3)c2c1)c1c(Cl)cncc1Cl` (stereo not drawn) [Compound 28, 5-(1-(3,5-dichloropyridin-4-yl)ethoxy)-N-(1-(2,2,2-trifluoroethyl)-1H-pyrazol-4-yl)-1H-indazole-3-carboxamide], the IC50 amounted to 11 nM at FGFR1 V561M, 3 nM against FGFR3 V555M, 2.6 nM against FGFR2 V564F and 68 nM at VEGFR2.

In the case of `C[C@@H](O)Cn1cc(NC(=O)c2n[nH]c3ccc(O[C@H](C)c4c(Cl)cncc4Cl)cc23)cn1` [Compound 33, 5-((R)-1-(3,5-dichloropyridin-4-yl)ethoxy)-N-(1-((R)-2-hydroxypropyl)-1H-pyrazol-4-yl)-1H-indazole-3-carboxamide], the IC50 against FGFR1 V561M is 1 nM; on FGFR3 V555M, 0.39 nM; against FGFR2 V564F, 0.33 nM; against VEGFR2, 99 nM.

On to `C[C@H](O)Cn1cc(NC(=O)c2n[nH]c3ccc(O[C@H](C)c4c(Cl)cncc4Cl)cc23)cn1` [Compound 32, 5-((R)-1-(3,5-dichloropyridin-4-yl)ethoxy)-N-(1-((S)-2-hydroxypropyl)-1H-pyrazol-4-yl)-1H-indazole-3-carboxamide], for which the IC50 against FGFR1 V561M came out at 0.3 nM; on FGFR3 V555M it was 0.26 nM; against FGFR2 V564F, 0.37 nM; on VEGFR2, 86 nM.

Turning to `C[C@@H](Oc1ccc2[nH]nc(C(=O)Nc3cnn(C4CCOCC4)c3)c2c1)c1c(Cl)cncc1Cl` [Compound 47, (R)-5-(1-(3,5-dichloropyridin-4-yl)ethoxy)-N-(1-(tetrahydro-2H-pyran-4-yl)-1H-pyrazol-4-yl)-1H-indazole-3-carboxamide], the IC50 on FGFR1 V561M was determined as 2.3 nM; against FGFR3 V555M it was 2.1 nM; at FGFR2 V564F, 1.2 nM; against VEGFR2, 194 nM.
